Measurements as given in patent US8546608B2, “Proteasome inhibitors and methods of using the same” (Cephalon, Inc., priority 2003, dated 2013).
Where a name gives a salt, the structure may show the parent alone.

What follows are compounds tested against T1, 20S Human Erythrocyte Proteasome (HEP) (Homo sapiens, UniProt P20618+P28074) (assay: Chymotrypsin-like activity of 20S Human Erythrocyte Proteasome (HEP), IC50 determination). Settings: assay of Example C, inhibition of HEP.
T1 construct: 20S Human Erythrocyte Proteasome (HEP), purchased from Immatics Biotechnologies Inc; purchased Immatics Biotechnologies Inc., Tübingen, Germany; host or cells: human erythrocytes (natural source)
Type: biochemical
Description: Assay for Chymotrypsin-like Activity of 20S Human Erythrocyte Proteasome (HEP)
Proteasome chymotrypsin-like activity of compounds of the invention was assayed according to the following procedure.
In 96-well microtiter plates, 20S Human Erythrocyte Proteasome (HEP), purchased from Immatics Biotechnologies Inc., Tübingen, Germany was plated at 0.2 μg/mL (about 0.6 nM catalytic sites) in 0.04% SDS 20 mM Tris buffer. A fluorimetric substrate Suc-LLVY-AMC (succinyl-Leu-Leu-Val-Tyr-7-amido-4-methylcoumarin), purchased from Sigma Inc., St. Louis, Mo., USA was added to a final concentration of 100 μM from a stock solution of 10 mM in dimethylsulfoxide. Reaction volumes were 100 μl per well. […] Proteasome activity was determined under conditions in which substrate hydrolysis increased linearly with time and the change in fluorescence signal was proportional to the concentration of free AMC.
Determination of IC50 Values for HEP and α-Chymotrypsin Inhibitors
(§1) Inhibition of the chymotrypsin-like activity of HEP and of bovine α-chymotrypsin was determined by incubating the enzyme with various concentrations of putative inhibitors for 15 minutes at 37° C. (or room temperature for α-chymotrypsin) prior to the addition of substrate. Each experimental condition was evaluated in triplicate, and replicate experiments were performed for the inhibitors described herein.

Row | SMILES | IC50
1 | CC(C)C[C@H](NC(=O)[C@@H](NC(=O)c1cccc(-c2cccnc2)c1)[C@@H](C)O)B(O)O [E.3.9, Boronic acid, [(1R)-1-[[(2S,3R)-3-hydroxy-2-[(3-pyridin-3-yl-benzoyl)amino]-1-oxobutyl]amino]-3-methylbutyl], hydrochloride salt] | < 10 nM
2 | CC(C)C[C@H](NC(=O)[C@H](CCCNC(=N)N[N+](=O)[O-])NC(=O)COc1ccc(Br)cc1)B1O[C@@H]2C[C@@H]3C[C@@H](C3(C)C)[C@]2(C)O1 [D.3.80, 2-(4-Bromophenoxy)-acetamide,N-[(1S)-1-[[[(1R)-1-[(3aS,4S,6S,7aR)-hexahydro-3a,5,5-trimethyl-4,6-methano-1,3,2-benzodioxaborol-2-yl]-3-methylbutyl]amino]carbonyl]-4-[[imino(nitroamino)methyl]amino]butyl]] | < 10 nM
3 | CCCCCCCc1ccc(C(=O)N[C@@H](CCCNC(=N)N[N+](=O)[O-])C(=O)N[C@@H](CC(C)C)B2O[C@@H]3C[C@@H]4C[C@@H](C4(C)C)[C@]3(C)O2)cc1 [D.3.130, 4-Heptylbenzamide,N-[(1S)-1-[[[(1R)-1-[(3aS,4S,6S,7aR)-hexahydro-3a,5,5-trimethyl-4,6-methano-1,3,2-benzodioxaborol-2-yl]-3-methylbutyl]amino]carbonyl]-4-[[imino(nitroamino)methyl]amino]butyl]] | < 10 nM
4 | CCCCC(C)CCC(=O)N[C@@H](CCCNC(=N)N[N+](=O)[O-])C(=O)N[C@@H](CC(C)C)B1O[C@@H]2C[C@@H]3C[C@@H](C3(C)C)[C@]2(C)O1 (mixture of isomers) [D.3.87, (RS)-4-Methyloctanamide,N-[(1S)-1-[[[(1R)-1-[(3aS,4S,6S,7aR)-hexahydro-3a,5,5-trimethyl-4,6-methano-1,3,2-benzodioxaborol-2-yl]-3-methylbutyl]amino]carbonyl]-4-[[imino(nitroamino)methyl]amino]butyl]] | < 10 nM
5 | CC(C)C[C@H](NC(=O)[C@H](CCCNC(=N)N[N+](=O)[O-])NC(=O)CN1CCCCC1)B1O[C@@H]2C[C@@H]3C[C@@H](C3(C)C)[C@]2(C)O1 [D.1.9, 2-Piperidin-1-yl-acetamide,N-[(1S)-1-[[[(1R)-1-[(3aS,4S,6S,7aR)-hexahydro-3a,5,5-trimethyl-4,6-methano-1,3,2-benzodioxaborol-2-yl]-3-methylbutyl]amino]carbonyl]-4-[[imino(nitroamino)methyl]amino]butyl]] | < 100 nM
6 | CCCCCCCC/C=C/C(=O)N[C@@H](CCCNC(=N)N[N+](=O)[O-])C(=O)N[C@@H](CC(C)C)B1O[C@@H]2C[C@@H]3C[C@@H](C3(C)C)[C@]2(C)O1 [D.3.69, (E)-Undec-2-enoic acid amide,N-[(1S)-1-[[[(1R)-1-[(3aS,4S,6S,7aR)-hexahydro-3a,5,5-trimethyl-4,6-methano-1,3,2-benzodioxaborol-2-yl]-3-methylbutyl]amino]carbonyl]-4-[[imino(nitroamino)methyl]amino]butyl]] | < 10 nM

Further lines, results first:

Row | IC50 | SMILES
7 | < 10 nM | CC(C)C[C@H](NC(=O)[C@H](CCCNC(=N)N[N+](=O)[O-])NC(=O)CCCCc1cccs1)B1O[C@@H]2C[C@@H]3C[C@@H](C3(C)C)[C@]2(C)O1 [D.3.115, 5-Thiophen-2-yl-pentanamide,N-[(1S)-1-[[[(1R)-1-[(3aS,4S,6S,7aR)-hexahydro-3a,5,5-trimethyl-4,6-methano-1,3,2-benzodioxaborol-2-yl]-3-methylbutyl]amino]carbonyl]-4-[[imino(nitroamino)methyl]amino]butyl]]
8 | < 10 nM | CCCCN1CCC(CCCC(=O)N[C@@H](CCCNC(=N)N[N+](=O)[O-])C(=O)N[C@@H](CC(C)C)B(O)O)CC1 [E.1.14, Boronic acid, [(1R)-1-[[(2S)-5-[[imino(nitroamino)methyl]amino]-2-[(1-oxo-4-(1-butylpiperidin-4-yl)butyl)amino]-1-oxopentyl]amino]-3-methylbutyl]]
9 | < 10 nM | COC(=O)CCCC(=O)N[C@@H](CCCNC(=N)N[N+](=O)[O-])C(=O)N[C@@H](CC(C)C)B(O)O [E.1.10, Boronic acid, [(1R)-1-[[(2S)-5-[[imino(nitroamino)methyl]amino]-2-[[4-(methoxycarbonyl)butanoyl]amino]-1-oxopentyl]amino]-3-methylbutyl]]
10 | < 10 nM | CC(C)C[C@H](NC(=O)[C@H](CCCNC(=N)N[N+](=O)[O-])NC(=O)CC1CC2CCC1C2)B1O[C@@H]2C[C@@H]3C[C@@H](C3(C)C)[C@]2(C)O1 (stereo partly drawn) [D.3.89, 2-(Bicyclo[2.2.1]hept-2-yl)acetamide,N-[(1S)-1-[[[(1R)-1-[(3aS,4S,6S,7aR)-hexahydro-3a,5,5-trimethyl-4,6-methano-1,3,2-benzodioxaborol-2-yl]-3-methylbutyl]amino]carbonyl]-4-[[imino(nitroamino)methyl]amino]butyl]]
11 | < 10 nM | Cc1ccc(CSCCC(=O)N[C@@H](CCCNC(=N)N[N+](=O)[O-])C(=O)N[C@@H](CC(C)C)B2O[C@@H]3C[C@@H]4C[C@@H](C4(C)C)[C@]3(C)O2)cc1 [D.3.76, 3-[(4-methylbenzyl)sulfanyl]propanamide,N-[(1S)-1-[[[(1R)-1-[(3aS,4S,6S,7aR)-hexahydro-3a,5,5-trimethyl-4,6-methano-1,3,2-benzodioxaborol-2-yl]-3-methylbutyl]amino]carbonyl]-4-[[imino(nitroamino)methyl]amino]butyl]]
12 | < 10 nM | CCCCCCCCCC(=O)N[C@@H](CCCNC(=N)N[N+](=O)[O-])C(=O)N[C@@H](CC(C)C)B1O[C@H](C2CCCCC2)[C@@H](C2CCCCC2)O1 [F.1, Decanamide, N-[(1S)-1-[[[(1R)-1-[(4R,5R)-4,5-dicyclohexyl-[1,3,2]dioxaborolan-2-yl]-3-methylbutyl]amino]carbonyl]-4-[[imino(nitroamino)methyl]amino]butyl]-]
13 | < 10 nM | CC(C)=CCC[C@H](C)CC(=O)N[C@@H](CCCNC(=N)N[N+](=O)[O-])C(=O)N[C@@H](CC(C)C)B1O[C@@H]2C[C@@H]3C[C@@H](C3(C)C)[C@]2(C)O1 [D.3.77, (3S)-3,7-Dimethyl-oct-6-enoic acid amide,N-[(1S)-1-[[[(1R)-1-[(3aS,4S,6S,7aR)-hexahydro-3a,5,5-trimethyl-4,6-methano-1,3,2-benzodioxaborol-2-yl]-3-methylbutyl]amino]carbonyl]-4-[[imino(nitroamino)methyl]amino]butyl]]
14 | < 10 nM | CCCCC(CC)CCC(=O)N[C@@H](CCCNC(=N)N[N+](=O)[O-])C(=O)N[C@@H](CC(C)C)B1O[C@@H]2C[C@@H]3C[C@@H](C3(C)C)[C@]2(C)O1 (mixture of isomers) [D.3.78, (RS)-4-Ethyloctanamide,N-[(1S)-1-[[[(1R)-1-[(3aS,4S,6S,7aR)-hexahydro-3a,5,5-trimethyl-4,6-methano-1,3,2-benzodioxaborol-2-yl]-3-methylbutyl]amino]carbonyl]-4-[[imino(nitroamino)methyl]amino]butyl]]
15 | < 10 nM | C=CCCCCCCCC(=O)N[C@@H](CCCNC(=N)N[N+](=O)[O-])C(=O)N[C@@H](CC(C)C)B1O[C@@H]2C[C@@H]3C[C@@H](C3(C)C)[C@]2(C)O1 [D.3.68, Dec-9-enamide,N-[(1S)-1-[[[(1R)-1-[(3aS,4S,6S,7aR)-hexahydro-3a,5,5-trimethyl-4,6-methano-1,3,2-benzodioxaborol-2-yl]-3-methylbutyl]amino]carbonyl]-4-[[imino(nitroamino)methyl]amino]butyl]]

What follows are compounds tested against T2, proteasome in Molt-4 cells (human leukemia) (Homo sapiens, UniProt P20618+P28074) (assay: not given). Settings: read-out: MOLT4 (EC50); assay of Example E, inhibition of MOLT4.
T2 sequence (P28074 60-263): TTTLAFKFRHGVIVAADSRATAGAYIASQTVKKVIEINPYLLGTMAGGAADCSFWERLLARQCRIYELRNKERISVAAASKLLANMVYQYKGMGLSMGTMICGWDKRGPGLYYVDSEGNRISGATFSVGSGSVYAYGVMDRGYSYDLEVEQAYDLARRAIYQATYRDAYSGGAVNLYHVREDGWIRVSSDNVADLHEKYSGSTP
T2 sequence (P20618 29-241): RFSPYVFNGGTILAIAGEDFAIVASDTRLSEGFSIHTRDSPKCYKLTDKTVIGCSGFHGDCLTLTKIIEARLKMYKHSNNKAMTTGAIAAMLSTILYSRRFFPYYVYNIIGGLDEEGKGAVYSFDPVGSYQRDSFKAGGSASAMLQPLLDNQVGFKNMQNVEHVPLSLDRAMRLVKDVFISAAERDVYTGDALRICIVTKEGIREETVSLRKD
Type: cell-based
Description: Cellular Assay for Chymotrypsin-like activity of Proteasome in Molt-4 Cell Line
The chymotrypsin-like activity of proteasome in Molt-4 cells (human leukemia) was assayed according to the following procedure. A brief description of the method was published previously (Harding et al., J. Immunol., 1995, 155, 1767).
Molt-4 cells were washed and resuspended in HEPES-buffered Saline (5.4 mM KCl, 120 mM NaCl, 25 mM Glucose, 1.5 mM MgSO4, 1 mM Na pyruvate, 20 mM Hepes) and plated in 96-well microtiter white plates to a final concentration of 6×10^6 cells/mL. Then various 5× proteasome inhibitor concentrations (or diluted DMSO for controls), prepared from 250×DMSO solutions by diluting 50-fold using HEPES-buffered saline, were added to the plate to a final 1× concentration. After 15 minutes incubation at 37° C., a fluorimetric cell permeable substrate (MeOSuc-FLF-AFC) (methoxysuccinyl-Phe-Leu-Phe-7-amido-4-trifluoromethylcoumarin) purchased from Enzyme Systems Products, catalogue number AFC-88, was added to each well at a final concentration of 25 μM from a stock solution of 20 mM in DMSO. Reaction volumes were 100 μl per well.
The concentration of free AFC was monitored every 1.5 min for 30 min ([…]) on a Polastar Optima, BMG Labtechnologies microplate reader, using an excitation wavelength of 390 nm and emission wavelength of 520 nm. Proteasome activity was determined under conditions in which substrate hydrolysis increased linearly with time and the change in fluorescent signal was proportional to the concentration of free AFC.
Determination of EC50 Values for Proteasome Inhibitors in MOLT-4 Cell Line
as §1, with “of” for “of the”, “proteasome in Molt-4 cells” for “HEP and of bovine α-chymotrypsin”, “cells” for “the enzyme”, “C.” for “C. (or room temperature for α-chymotrypsin)”

Row | SMILES | EC50
16 | CC(C)C[C@H](NC(=O)[C@@H](NC(=O)c1cccc(-c2cccnc2)c1)[C@@H](C)O)B(O)O [E.3.9, Boronic acid, [(1R)-1-[[(2S,3R)-3-hydroxy-2-[(3-pyridin-3-yl-benzoyl)amino]-1-oxobutyl]amino]-3-methylbutyl], hydrochloride salt] | < 200 nM
